Data: US20240189278A1, “NOVEL COMPOUNDS AND METHODS FOR INCREASING KLOTHO GENE EXPRESSION” (Klotho Therapeutics, Inc., priority 2017, published 2024)

Assays:
[1] = tested on: SIRT1; assay: Western blot of SIRT1 and acetyl p53, aortas of aged mice; assay type: in vivo, mouse
Protocol: (§1) Animal study protocols. This example was performed according to the guide lines of the National Institute of Health on the care and use of laboratory animals and approved by the institutional Animal Care and Use Committee of University of Oklahoma Health Science Center. AU mice were housed in cages at room temperature (2S±PC) and were provided with Purina laboratory chow No 5001) and tap Water and lithium. 6 adult mice (12 months) and 20 old mice (24-26 months) mice were next in this study. The old (aged) mice were randomly divided into three subgroups and each group had 6 or 7 mice. One subgroup received compound H (10 mg/kg/day1, IP, Enamine LLC, Monmouth Jct., NJ) and one group received an equal volume of DMSO (dimethyl sulfoxide, 5%) and served as a control. The third group received no treatment Blood pressure was measured before and after treatment with the active agent at 1 week and 2 week. Pulse wave velocity (PWV) was measured after 2 weeks treatment with active agent all animals were sacrificed and perfused transcardially with PBS under deep anesthesia (ketamine xylazine, 90/10 mg, IP). […]
(§2) Western Blot Analysis: Protein samples from the thoracic aorta were prepared in Lysis buffer as described previously. […] Protein abundance on western blots was quantified densitometry using Image lab software (Bio-Rad, Hercules, CA).

[2] = tested on: Klotho gene; assay: Methylation analyses of Klotho gene (methylation-specific PCR); assay type: in vivo, mouse; details: kidney of aged mice, 2 weeks treatment
Protocol: as §1
Methylation Analyses of Klotho Gene: The methylation status of CpG islands of mice Klotho gene was analyzed using methylation-specific PCR (MSP) and bisulfite sequencing. […] The methylation index was calculated as (band intensity of MSP with methylated primers)/(band intensity of inputted control). […]

[3] = tested on: RUNX2; assay: Western blot of RUNX2, aortas of aged mice; assay type: in vivo, mouse
Protocol: as §1, §2

[4] = tested on: ALP; assay: Western blot of ALP, aortas of aged mice; assay type: in vivo, mouse
Protocol: as §1, §2

[5] = tested on: mouse vascular aortic smooth muscle cells (MOVAS); assay: Western blot of treated MOVAS cells; assay type: cell-based; details: 10 μM active agent, 16 h
Protocol: After cells confluent, the media were switched to DMEM with or without 2° A1 serum, and the cells were then treated with 10 μM active agent or 5 nM secreted Klotho for another 16 h then harvested for western blot analysis.
Western Blot Analysis: Protein samples from the thoracic aorta were prepared in Lysis buffer as described previously. The proteins ([…] were resolved by SOS-PAGE and transferred to a nitrocellulose membrane (Bio-Rad). The membrane was then incubated overnight (4° C.) with a primary antibody against collagen-1-elastin. M1′v1P2; MMP9, ALP (Abeam1 1:1000), TGF-1, TGF˜N3 (Santa Cmz, 1:100). RUX2, or aNTulmliu (Cell Signaling. 1:1000). Goat autimouse or goat anti rabbit horseradish peroxidase (1:2000 . . . 1:5,000; Santa Cruz Biotechnology) was used as a secondary antibody find incubated for 1 hour at room temperature. Specific proteins were detected by chemiluminescent methods using Amersham™ western blotting detection reagents (GE Healthcare, UK). Protein abundance on western blots was quantified densitometry using Image lab software (Bio-Rad, Hercules, CA).

[6] = tested on: MMP2; assay: MMP2 activity by zymogram PAGE, aortas of aged mice; assay type: in vivo, mouse; details: zymography
Protocol: as §1
Measurements for MMP2 and MMP9 Activity. MMP2 and MMP9 activity were measured by Zymogram PAGE (Bio˜-Rad). Briefly Lysates from thoracic aorta were quantified using BCA assay (Pierce) and prepared under non-reducing, non-denaturing conditions. […]

[7] = tested on: collagen-1; assay: Collagen in aortas of aged mice (staining and western blot); assay type: in vivo, mouse
Protocol: as §1, with “One subgroup received compound H (10 mg/kg/day1, IP, Enamine LLC, Monmouth Jct., NJ) and one group received an equal volume of DMSO (dimethyl sulfoxide, 5%) and served as a control.” left out
Histological and Immunohistochemical Staining: Thoracic aortas were quickly excised and placed in cold (4′T) physiological saline solution. […] Aorta rings were post-fixed in 4% paraformaldehyde, embedded in paraffin and sectioned at […] thickness, Collagen was quantified by Masson' s trichrome staining as described previously. […] Blue-stained collagen areas were quantified with ImageJ (NIH, Bethesda, USA) film 4-5 regions per section. […]

[8] = tested on: aged mice; assay: Blood pressure by VPR tail-cuff method in aged mice; assay type: in vivo, mouse
Protocol: Animal study protocols. This example was performed according to the guide lines of the National Institute of Health on the care and use of laboratory animals and approved by the institutional Animal Care and Use Committee of University of Oklahoma Health Science Center. AU mice were housed in cages at room temperature (2S±PC) and were provided with Purina laboratory chow No 5001) and tap Water and lithium. 6 adult mice (12 months) and 20 old mice (24-26 months) mice were next in this study. The old (aged) mice were randomly divided into three subgroups and each group had 6 or 7 mice. One subgroup received compound H (10 mg/kg/day1, IP, Enamine LLC, Monmouth Jct., NJ) and one group received an equal volume of DMSO (dimethyl sulfoxide, 5%) and served as a control. The third group received no treatment Blood pressure was measured before and after treatment with the active agent at 1 week and 2 week. Pulse wave velocity (PWV) was measured after 2 weeks treatment with active agent all animals were sacrificed and perfused transcardially with PBS under deep anesthesia (ketamine xylazine, 90/10 mg, IP). The aortas were then quickly removed, washed and cut into pieces for subsequent analyses.
Measurement of Blood Pressure: Blood pressure was measured by the volume-pressure recording (VPR) tail-cuff method with slight (28° C.) but not heating of the tail using it CODA none-invasive blood pressure monitoring system (Kent Scientific). This method of measurement has been validated by using a telemetry system. Animals were gently handled and trained for the VPR tail-cuff measurement to minimize handling stress. No signs of stress were observed during BP measurements. The operator was also strictly trained for the measurement procedure. At least 20 stable cycles data were obtained for the result analysis for each measurement.

[9] = 10 mg/kg/day IP, 2 weeks treatment

O=C(Nc1ccccc1Cl)c1c[nH]c2ccccc12 [active agent, N-(2-chlorophenyl)-Ul-indde-3-carboxamide]
SirT1 activity (deacetylation of p53) ([1]; aorta of old mice): increased | SIRT1 expression ([1]; aortas of aged mice): did not affect | Methylation of Klotho gene [2]: inhibited | RUNX2 expression [3]: decreased | ALP expression [4]: decreased | MMP2 expression ([5]; Klotho free medium (KL(−))): did not affect | MMP9 expression ([5]; Klotho free medium (KL(−))): did not affect | TGFβ1 expression ([5]; Klotho free medium (KL(−))): did not affect | TGFβ3 expression ([5]; Klotho free medium (KL(−))): did not affect | MMP2 expression ([5]; regular medium): did not change | MMP9 expression ([5]; regular medium): did not change | TGFβ1 expression ([5]; regular medium): did not change | TGFβ3 expression ([5]; regular medium): did not change | MMP2 activity [6]: decreased | Collagen production [7]: decreased | Diastolic blood pressure [8, 9]: decreased | Mean blood pressure [8, 9]: decreased | Pulse pressure [8, 9]: decreased | Systolic blood pressure [8, 9]: decreased | Blood pressure ([8]; after 1 week of treatment): decreased
